According to ChEMBL document CHEMBL5678812, “Inhibitors of p21-activated kinases (PAKs)” (J Med Chem, 2015):

Experiments:
[1] = target: Focal adhesion kinase 1 (Homo sapiens) (UniProt Q05397); experiment: Inhibition of FAK (unknown origin) at 0.1 uM relative to control
[2] = target: Casein kinase I isoform delta (Homo sapiens) (UniProt P48730); experiment: Inhibition of CK1delta (unknown origin) at 0.1 uM relative to control
[3] = target: Megakaryocyte-associated tyrosine-protein kinase (Homo sapiens) (UniProt P42679); experiment: Inhibition of Hyl (unknown origin) at 0.1 uM relative to control
[4] = target: Homeodomain-interacting protein kinase 1 (Homo sapiens) (UniProt Q86Z02); experiment: Inhibition of HIPK1 (unknown origin) at 0.1 uM relative to control
[5] = target: Inhibitor of nuclear factor kappa-B kinase subunit epsilon (Homo sapiens) (UniProt Q14164); experiment: Inhibition of IKKepsilon (unknown origin) at 0.1 uM relative to control
[6] = target: Tyrosine-protein kinase JAK1 (Homo sapiens) (UniProt P23458); experiment: Inhibition of JAK1 (unknown origin) at 0.1 uM relative to control
[7] = target: Homeodomain-interacting protein kinase 2 (Homo sapiens) (UniProt Q9H2X6); experiment: Inhibition of HIPK2 (unknown origin) at 0.1 uM relative to control
[8] = target: MAP kinase-activated protein kinase 2 (Homo sapiens) (UniProt P49137); experiment: Inhibition of MAPKAPK2 (unknown origin) at 0.1 uM relative to control
[9] = target: Tyrosine-protein kinase CSK (Homo sapiens) (UniProt P41240); experiment: Inhibition of CSK (unknown origin) at 0.1 uM relative to control
[10] = target: MAP kinase-activated protein kinase 3 (Homo sapiens) (UniProt Q16644); experiment: Inhibition of MAPKAPK3 (unknown origin) at 0.1 uM relative to control
[11] = species: Homo sapiens; experiment: Inhibition of CDK2/cyclinA (unknown origin) at 0.1 uM relative to control
[12] = target: Mitogen-activated protein kinase 11 (Homo sapiens) (UniProt Q15759); experiment: Inhibition of p38beta (unknown origin) at 0.1 uM relative to control
[13] = target: Serine/threonine-protein kinase MRCK alpha (Homo sapiens) (UniProt Q5VT25); experiment: Inhibition of MRCKalpha (unknown origin) at 0.1 uM relative to control
[14] = target: Serine/threonine-protein kinase 25 (Homo sapiens) (UniProt O00506); experiment: Inhibition of YSK1 (unknown origin) at 0.1 uM relative to control
[15] = target: PAS domain-containing serine/threonine-protein kinase (Homo sapiens) (UniProt Q96RG2); experiment: Inhibition of PASK (unknown origin) at 0.1 uM relative to control
[16] = target: Tyrosine-protein kinase Lck (Homo sapiens) (UniProt P06239); experiment: Inhibition of Lck (unknown origin) at 0.1 uM relative to control
[17] = target: Leukocyte tyrosine kinase receptor (Homo sapiens) (UniProt P29376); experiment: Inhibition of LTK (unknown origin) at 0.1 uM relative to control
[18] = target: Serine/threonine-protein kinase PLK1 (Homo sapiens) (UniProt P53350); experiment: Inhibition of PLK1 (unknown origin) at 0.1 uM relative to control
[19] = target: Calcium/calmodulin-dependent protein kinase type II subunit delta (Homo sapiens) (UniProt Q13557); experiment: Inhibition of CaMKIIdelta (unknown origin) at 0.1 uM relative to control
[20] = target: Tyrosine-protein kinase Yes (Homo sapiens) (UniProt P07947); experiment: Inhibition of Yes (unknown origin) at 0.1 uM relative to control
[21] = target: Insulin receptor (Homo sapiens) (UniProt P06213); experiment: Inhibition of InsR (unknown origin) at 0.1 uM relative to control
[22] = target: Serine/threonine-protein kinase mTOR (Homo sapiens) (UniProt P42345); experiment: Inhibition of mTOR (unknown origin) at 0.1 uM relative to control
[23] = target: Muscle, skeletal receptor tyrosine-protein kinase (Homo sapiens) (UniProt O15146); experiment: Inhibition of MUSK (unknown origin) at 0.1 uM relative to control
[24] = target: Death-associated protein kinase 3 (Homo sapiens) (UniProt O43293); experiment: Inhibition of ZIPK (unknown origin) at 0.1 uM relative to control
[25] = target: Serine/threonine-protein kinase 3 (Homo sapiens) (UniProt Q13188); experiment: Inhibition of MST2 (unknown origin) at 0.1 uM relative to control
[26] = target: DNA-PK/Ku70/Ku85 (Homo sapiens) (UniProt P78527+P12956+P13010); experiment: Inhibition of DNA-PK (unknown origin) at 0.1 uM relative to control; format: protein-complex assay
[27] = target: BDNF/NT-3 growth factors receptor (Homo sapiens) (UniProt Q16620); experiment: Inhibition of TrkB (unknown origin) at 0.1 uM relative to control
[28] = target: MAP kinase-interacting serine/threonine-protein kinase 1 (Homo sapiens) (UniProt Q9BUB5); experiment: Inhibition of MKNK1 (unknown origin) at 0.1 uM relative to control
[29] = target: Serine/threonine-protein kinase Sgk2 (Homo sapiens) (UniProt Q9HBY8); experiment: Inhibition of SGK2 (unknown origin) at 0.1 uM relative to control
[30] = target: Mitogen-activated protein kinase 12 (Homo sapiens) (UniProt P53778); experiment: Inhibition of p38gamma (unknown origin) at 0.1 uM relative to control
[31] = target: TAK1/TAB1 (Homo sapiens) (UniProt Q15750+O43318); experiment: Inhibition of TAK1-TAB1 (unknown origin) at 0.1 uM relative to control; format: protein-complex assay
[32] = target: Tyrosine-protein kinase Lyn (Homo sapiens) (UniProt P07948); experiment: Inhibition of LynB (unknown origin) at 0.1 uM relative to control
[33] = target: cAMP-dependent protein kinase (PKA) (Homo sapiens) (UniProt P22694+P17612+P22612); experiment: Inhibition of PKA (unknown origin) at 0.1 uM relative to control; format: protein assay
[34] = target: Leucine-rich repeat serine/threonine-protein kinase 2 (Homo sapiens) (UniProt Q5S007); experiment: Inhibition of LRRK2 (unknown origin) at 0.1 uM relative to control
[35] = target: Serine/threonine-protein kinase 26 (Homo sapiens) (UniProt Q9P289); experiment: Inhibition of MST4 (unknown origin) at 0.1 uM relative to control
[36] = target: Ephrin type-B receptor 1 (Homo sapiens) (UniProt P54762); experiment: Inhibition of EphB1 (unknown origin) at 0.1 uM relative to control
[37] = target: CDK8/Cyclin C (Homo sapiens) (UniProt P49336+P24863); experiment: Inhibition of CDK8/CyclinC (unknown origin) at 0.1 uM relative to control; format: protein-complex assay
[38] = species: Homo sapiens; experiment: Inhibition of KHS1 (unknown origin) at 0.1 uM relative to control
[39] = target: Tyrosine-protein kinase Fes/Fps (Homo sapiens) (UniProt P07332); experiment: Inhibition of Fes (unknown origin) at 0.1 uM relative to control

Sequence of Muscle, skeletal receptor tyrosine-protein kinase (Homo sapiens) (O15146 whole entry): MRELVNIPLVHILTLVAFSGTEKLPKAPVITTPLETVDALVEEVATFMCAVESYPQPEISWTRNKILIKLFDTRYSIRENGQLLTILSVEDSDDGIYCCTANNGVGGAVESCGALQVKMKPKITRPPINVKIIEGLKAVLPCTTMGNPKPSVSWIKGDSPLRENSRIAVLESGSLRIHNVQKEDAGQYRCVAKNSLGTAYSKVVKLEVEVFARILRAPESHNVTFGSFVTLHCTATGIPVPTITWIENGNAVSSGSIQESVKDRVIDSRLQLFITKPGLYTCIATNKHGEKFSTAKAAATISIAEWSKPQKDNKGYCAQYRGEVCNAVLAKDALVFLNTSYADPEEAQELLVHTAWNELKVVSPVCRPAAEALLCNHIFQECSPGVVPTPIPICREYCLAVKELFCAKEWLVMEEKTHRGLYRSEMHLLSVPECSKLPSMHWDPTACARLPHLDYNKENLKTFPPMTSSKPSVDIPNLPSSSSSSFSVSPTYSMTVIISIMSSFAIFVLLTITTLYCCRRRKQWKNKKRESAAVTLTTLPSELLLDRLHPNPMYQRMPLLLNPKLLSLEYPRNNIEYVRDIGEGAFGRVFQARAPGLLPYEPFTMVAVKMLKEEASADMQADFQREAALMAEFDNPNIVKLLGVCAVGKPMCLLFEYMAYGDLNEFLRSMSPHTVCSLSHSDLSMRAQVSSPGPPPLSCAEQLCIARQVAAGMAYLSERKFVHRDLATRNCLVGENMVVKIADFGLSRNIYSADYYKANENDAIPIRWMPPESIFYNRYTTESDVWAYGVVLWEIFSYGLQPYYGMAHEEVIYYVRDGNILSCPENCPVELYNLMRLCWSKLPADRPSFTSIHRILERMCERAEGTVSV
Sequence of Calcium/calmodulin-dependent protein kinase type II subunit delta (Homo sapiens) (Q13557 whole entry): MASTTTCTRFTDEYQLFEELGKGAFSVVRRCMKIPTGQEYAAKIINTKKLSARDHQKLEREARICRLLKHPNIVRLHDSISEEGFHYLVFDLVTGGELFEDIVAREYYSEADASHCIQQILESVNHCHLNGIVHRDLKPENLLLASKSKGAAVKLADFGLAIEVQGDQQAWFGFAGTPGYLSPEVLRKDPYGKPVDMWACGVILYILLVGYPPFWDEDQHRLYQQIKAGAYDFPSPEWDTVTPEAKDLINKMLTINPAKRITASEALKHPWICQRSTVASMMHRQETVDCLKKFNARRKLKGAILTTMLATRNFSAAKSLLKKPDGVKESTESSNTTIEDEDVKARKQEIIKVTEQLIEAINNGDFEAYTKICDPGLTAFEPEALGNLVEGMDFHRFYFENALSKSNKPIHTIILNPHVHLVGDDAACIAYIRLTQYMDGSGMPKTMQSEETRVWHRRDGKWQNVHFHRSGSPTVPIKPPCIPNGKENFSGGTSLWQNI
Sequence of Insulin receptor (Homo sapiens) (P06213 28-758 limits assumed): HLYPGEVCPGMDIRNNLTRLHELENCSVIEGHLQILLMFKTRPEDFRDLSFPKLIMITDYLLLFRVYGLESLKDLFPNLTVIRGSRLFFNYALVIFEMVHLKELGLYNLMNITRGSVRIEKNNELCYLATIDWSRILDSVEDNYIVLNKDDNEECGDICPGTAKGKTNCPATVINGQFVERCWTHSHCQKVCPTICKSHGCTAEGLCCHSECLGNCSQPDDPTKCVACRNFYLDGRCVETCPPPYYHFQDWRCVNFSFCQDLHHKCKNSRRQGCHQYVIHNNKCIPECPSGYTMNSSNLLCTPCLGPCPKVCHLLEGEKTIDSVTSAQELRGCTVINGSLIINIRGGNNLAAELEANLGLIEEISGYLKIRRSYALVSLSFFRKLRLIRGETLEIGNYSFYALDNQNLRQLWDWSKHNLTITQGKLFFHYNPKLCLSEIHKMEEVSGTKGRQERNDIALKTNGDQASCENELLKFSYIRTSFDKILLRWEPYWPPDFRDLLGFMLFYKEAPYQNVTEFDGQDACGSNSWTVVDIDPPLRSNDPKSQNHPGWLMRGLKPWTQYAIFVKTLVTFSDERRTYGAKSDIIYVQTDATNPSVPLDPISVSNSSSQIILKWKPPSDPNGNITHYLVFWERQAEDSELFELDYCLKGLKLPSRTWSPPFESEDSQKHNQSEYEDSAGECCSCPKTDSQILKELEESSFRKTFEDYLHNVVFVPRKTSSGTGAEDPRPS
Sequence of Insulin receptor (Homo sapiens) (P06213 763-1382 limits assumed): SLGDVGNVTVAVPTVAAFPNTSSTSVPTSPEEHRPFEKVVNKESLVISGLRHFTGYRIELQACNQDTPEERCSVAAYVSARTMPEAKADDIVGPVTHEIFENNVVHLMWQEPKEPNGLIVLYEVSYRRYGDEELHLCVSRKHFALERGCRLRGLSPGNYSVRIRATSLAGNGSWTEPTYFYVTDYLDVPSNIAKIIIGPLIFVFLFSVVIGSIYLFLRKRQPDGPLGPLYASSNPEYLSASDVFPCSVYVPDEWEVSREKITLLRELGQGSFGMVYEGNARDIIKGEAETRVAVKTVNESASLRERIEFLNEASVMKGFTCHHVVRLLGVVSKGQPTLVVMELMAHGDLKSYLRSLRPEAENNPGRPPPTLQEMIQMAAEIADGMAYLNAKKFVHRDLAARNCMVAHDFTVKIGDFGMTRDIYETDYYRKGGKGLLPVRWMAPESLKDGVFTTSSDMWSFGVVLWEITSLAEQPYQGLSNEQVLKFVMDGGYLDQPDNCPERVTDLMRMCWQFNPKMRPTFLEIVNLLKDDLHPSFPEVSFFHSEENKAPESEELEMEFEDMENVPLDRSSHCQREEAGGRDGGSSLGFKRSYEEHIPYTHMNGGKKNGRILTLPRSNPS
Sequence of Homeodomain-interacting protein kinase 2 (Homo sapiens) (Q9H2X6 whole entry, looked up): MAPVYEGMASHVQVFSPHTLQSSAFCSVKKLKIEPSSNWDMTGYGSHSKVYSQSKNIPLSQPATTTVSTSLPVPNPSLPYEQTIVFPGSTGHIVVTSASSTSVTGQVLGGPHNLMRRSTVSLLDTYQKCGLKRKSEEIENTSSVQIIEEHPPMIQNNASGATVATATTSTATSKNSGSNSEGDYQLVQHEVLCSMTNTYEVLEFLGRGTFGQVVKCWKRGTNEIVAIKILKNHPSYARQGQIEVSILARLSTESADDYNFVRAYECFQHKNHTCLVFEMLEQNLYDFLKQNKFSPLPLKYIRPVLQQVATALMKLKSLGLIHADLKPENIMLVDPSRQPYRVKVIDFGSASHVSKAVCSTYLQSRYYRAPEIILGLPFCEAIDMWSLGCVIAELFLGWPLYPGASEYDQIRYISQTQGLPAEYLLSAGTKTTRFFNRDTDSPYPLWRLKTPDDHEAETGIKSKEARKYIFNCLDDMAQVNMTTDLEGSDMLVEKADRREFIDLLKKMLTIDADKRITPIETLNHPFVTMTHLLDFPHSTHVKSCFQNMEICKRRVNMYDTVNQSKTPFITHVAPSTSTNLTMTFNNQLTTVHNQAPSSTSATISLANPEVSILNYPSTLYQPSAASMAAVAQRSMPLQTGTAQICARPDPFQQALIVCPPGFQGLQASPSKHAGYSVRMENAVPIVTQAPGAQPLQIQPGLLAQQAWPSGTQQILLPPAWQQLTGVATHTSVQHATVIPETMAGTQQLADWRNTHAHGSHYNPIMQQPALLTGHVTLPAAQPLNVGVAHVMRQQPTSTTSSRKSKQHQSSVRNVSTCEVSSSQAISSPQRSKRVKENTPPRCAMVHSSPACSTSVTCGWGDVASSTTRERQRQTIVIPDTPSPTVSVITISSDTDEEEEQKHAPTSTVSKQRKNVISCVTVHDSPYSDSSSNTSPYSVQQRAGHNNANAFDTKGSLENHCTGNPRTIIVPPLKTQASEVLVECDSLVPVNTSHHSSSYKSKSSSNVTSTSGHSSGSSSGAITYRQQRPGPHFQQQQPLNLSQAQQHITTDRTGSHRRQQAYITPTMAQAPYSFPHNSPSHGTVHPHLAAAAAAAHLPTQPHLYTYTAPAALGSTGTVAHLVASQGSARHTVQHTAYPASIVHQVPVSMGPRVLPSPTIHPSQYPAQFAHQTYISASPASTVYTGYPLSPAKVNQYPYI
Sequence of Megakaryocyte-associated tyrosine-protein kinase (Homo sapiens) (P42679 whole entry): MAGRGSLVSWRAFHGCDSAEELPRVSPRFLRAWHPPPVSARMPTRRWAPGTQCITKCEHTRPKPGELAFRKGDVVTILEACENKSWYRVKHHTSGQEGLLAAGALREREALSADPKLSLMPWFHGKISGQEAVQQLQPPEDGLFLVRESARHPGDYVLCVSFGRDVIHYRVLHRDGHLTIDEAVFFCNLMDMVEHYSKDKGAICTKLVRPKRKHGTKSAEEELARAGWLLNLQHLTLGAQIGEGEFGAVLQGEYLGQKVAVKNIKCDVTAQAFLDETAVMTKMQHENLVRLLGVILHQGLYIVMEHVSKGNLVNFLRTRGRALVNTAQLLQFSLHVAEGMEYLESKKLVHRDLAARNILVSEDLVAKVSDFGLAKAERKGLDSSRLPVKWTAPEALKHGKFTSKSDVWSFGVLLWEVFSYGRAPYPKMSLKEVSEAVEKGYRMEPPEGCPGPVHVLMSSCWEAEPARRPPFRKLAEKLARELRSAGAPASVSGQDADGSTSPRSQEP
Sequence of Serine/threonine-protein kinase 26 (Homo sapiens) (Q9P289 2-416 limits assumed): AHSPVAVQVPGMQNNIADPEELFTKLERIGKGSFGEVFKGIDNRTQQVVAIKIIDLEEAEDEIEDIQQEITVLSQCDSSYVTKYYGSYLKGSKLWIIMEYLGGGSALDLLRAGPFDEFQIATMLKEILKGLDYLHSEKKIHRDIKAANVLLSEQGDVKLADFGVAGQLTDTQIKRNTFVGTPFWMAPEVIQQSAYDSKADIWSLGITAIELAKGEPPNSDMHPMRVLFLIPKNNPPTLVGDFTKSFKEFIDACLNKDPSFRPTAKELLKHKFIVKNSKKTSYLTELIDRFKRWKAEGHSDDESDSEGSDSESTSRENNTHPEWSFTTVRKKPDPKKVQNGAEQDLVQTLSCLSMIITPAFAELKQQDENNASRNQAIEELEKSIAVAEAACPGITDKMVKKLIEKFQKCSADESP

Structure (SMILES): COCCNc1nc2ccc(C#CC3(O)CCCCC3)cc2n1-c1ccnc(N)n1
- inhibition [1]: 3.5%
- inhibition [2]: 6.6%
- inhibition [3]: 6.6%
- inhibition [4]: 1.7%
- inhibition [5]: 6%
- inhibition [6]: 0.1%
- inhibition [7]: 2.8%
- inhibition [8]: 3.9%
- inhibition [9]: 9.8%
- inhibition [10]: 4.8%
- inhibition [11]: 1.9%
- inhibition [12]: -6.4%
- inhibition [13]: -2.4%
- inhibition [14]: 6.5%
- inhibition [15]: 15.9%
- inhibition [16]: 7.6%
- inhibition [17]: -0.9%
- inhibition [18]: -2%
- inhibition [19]: 6.9%
- inhibition [20]: -1.4%
- inhibition [21]: 3.5%
- inhibition [22]: -2.4%
- inhibition [23]: -2.8%
- inhibition [24]: 2.9%
- inhibition [25]: 8.8%
- inhibition [26]: -6.3%
- inhibition [27]: 15.1%
- inhibition [28]: -2.7%
- inhibition [29]: -2.9%
- inhibition [30]: 8.1%

Structure (SMILES): CN1CCc2cc(-c3cnc4[nH]cc(C(=O)c5ccccc5Cl)c4c3)ccc2C1
- inhibition [31]: 27.9%
- inhibition [32]: 99.8%
- inhibition [33]: 13%
- inhibition [34]: 48.2%
- inhibition [35]: 82%
- inhibition [36]: 93%
- inhibition [37]: 57.3%
- inhibition [38]: 105%
- inhibition [39]: 38.3%
